{"source": "patent US10543172B2", "about": "“Econazole composition and methods of treatment therewith” (PARAGON NORDIC AB, priority 2010, dated 2020)", "origin": "cited, not measured here", "tested_on": "dermatophytes and yeasts", "conditions": "Liao et al., Yao Xue Xue Bao 28(1):22-7 (1993)"}
{"smiles": "Clc1ccc(CO[C@@H](Cn2ccnc2)c2ccc(Cl)cc2Cl)cc1", "note": "[(R)-(−)-econazole]", "values": [{"measurement": "antifungal activity of stereoisomer", "result": "greater antifungal activity"}]}
